pIC50, pKi: −log10 of the molar value.
Experiments:
Adenosine receptor A3 = biological target: T1, Adenosine receptor A3 (Homo sapiens, UniProt P0DMS8); type: cell membranes, CHO-K1, Membrane; conditions: cho-k1;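 also: radioligand binding assay with AB-MECA serving as the labeled ligand; in other assays of this panel Not Active means under 50% inhibition at 10 µM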
T1 sequence (P0DMS8 whole entry): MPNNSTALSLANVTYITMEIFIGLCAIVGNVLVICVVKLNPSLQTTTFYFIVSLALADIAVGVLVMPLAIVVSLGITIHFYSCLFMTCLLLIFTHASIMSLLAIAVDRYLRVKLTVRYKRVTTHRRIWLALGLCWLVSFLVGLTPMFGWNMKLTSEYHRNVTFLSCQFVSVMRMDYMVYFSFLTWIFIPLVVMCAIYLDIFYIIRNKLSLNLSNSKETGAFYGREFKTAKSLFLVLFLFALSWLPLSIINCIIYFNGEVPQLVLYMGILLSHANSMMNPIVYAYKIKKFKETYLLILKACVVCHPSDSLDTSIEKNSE

[1] = biological target: T2, Angiotensin-converting enzyme (Oryctolagus cuniculus, UniProt P12822); type: tissue-based, Lung;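 also: enzymatic inhibition of angiotensin-converting enzyme measured with FAPGG as the substrate; in other assays of this panel Not Active means under 50% inhibition at 10 µM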
T2 sequence (P12822 whole entry): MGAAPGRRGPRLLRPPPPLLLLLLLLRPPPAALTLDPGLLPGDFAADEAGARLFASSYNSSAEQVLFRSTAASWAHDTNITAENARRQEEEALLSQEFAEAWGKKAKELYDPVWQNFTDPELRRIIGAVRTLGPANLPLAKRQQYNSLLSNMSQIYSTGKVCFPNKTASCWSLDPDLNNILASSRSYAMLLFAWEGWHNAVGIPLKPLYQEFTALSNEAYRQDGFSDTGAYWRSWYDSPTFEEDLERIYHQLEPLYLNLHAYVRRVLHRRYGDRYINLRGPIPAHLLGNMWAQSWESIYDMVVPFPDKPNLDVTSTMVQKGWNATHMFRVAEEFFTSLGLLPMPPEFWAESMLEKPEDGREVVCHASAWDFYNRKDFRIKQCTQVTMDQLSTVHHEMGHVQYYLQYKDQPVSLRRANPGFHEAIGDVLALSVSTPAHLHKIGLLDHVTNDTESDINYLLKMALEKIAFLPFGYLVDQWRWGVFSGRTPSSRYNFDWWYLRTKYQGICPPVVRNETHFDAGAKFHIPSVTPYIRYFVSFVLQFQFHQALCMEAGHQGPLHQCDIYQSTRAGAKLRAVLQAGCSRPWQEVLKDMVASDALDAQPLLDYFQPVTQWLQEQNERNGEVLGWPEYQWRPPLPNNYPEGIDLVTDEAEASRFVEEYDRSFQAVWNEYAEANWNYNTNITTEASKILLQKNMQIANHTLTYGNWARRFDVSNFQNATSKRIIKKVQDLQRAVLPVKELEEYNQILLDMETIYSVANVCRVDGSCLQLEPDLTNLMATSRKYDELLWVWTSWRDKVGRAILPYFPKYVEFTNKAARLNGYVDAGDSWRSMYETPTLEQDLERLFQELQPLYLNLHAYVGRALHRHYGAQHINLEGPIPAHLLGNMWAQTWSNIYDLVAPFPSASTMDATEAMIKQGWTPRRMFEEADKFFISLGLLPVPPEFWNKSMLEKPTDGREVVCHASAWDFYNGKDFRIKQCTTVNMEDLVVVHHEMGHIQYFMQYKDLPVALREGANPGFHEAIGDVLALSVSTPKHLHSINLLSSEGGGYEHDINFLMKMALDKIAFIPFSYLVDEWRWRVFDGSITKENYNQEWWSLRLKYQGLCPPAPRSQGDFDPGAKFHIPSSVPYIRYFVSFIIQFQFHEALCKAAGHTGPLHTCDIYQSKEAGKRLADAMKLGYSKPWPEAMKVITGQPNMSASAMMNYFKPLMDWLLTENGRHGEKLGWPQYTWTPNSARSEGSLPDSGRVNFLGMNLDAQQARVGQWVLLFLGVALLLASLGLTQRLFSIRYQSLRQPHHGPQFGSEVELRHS

[2] = biological target: Beta-3 adrenergic receptor (Homo sapiens, UniProt P13945); experiment: DRUGMATRIX: Adrenergic beta3 radioligand binding (ligand: [125I] Cyanopindolol); type: cell membranes, HEK293, Membrane; conditions: Not Active = under 50% inhibition at 10 µM
[3] = DRUGMATRIX: Imidazoline I2, Central radioligand binding (ligand: [3H] Idazoxan); type: cell membranes, Rattus norvegicus, Wistar, Cerebral cortex, Membrane; conditions: Not Active = under 50% inhibition at 10 µM
Endothelin-1 receptor = biological target: T3, Endothelin-1 receptor (Homo sapiens, UniProt P25101); type: cell membranes, Membrane; conditions: cho-k1; also: in other assays of this panel Not Active means under 50% inhibition at 10 µM
T3 sequence (P25101 whole entry): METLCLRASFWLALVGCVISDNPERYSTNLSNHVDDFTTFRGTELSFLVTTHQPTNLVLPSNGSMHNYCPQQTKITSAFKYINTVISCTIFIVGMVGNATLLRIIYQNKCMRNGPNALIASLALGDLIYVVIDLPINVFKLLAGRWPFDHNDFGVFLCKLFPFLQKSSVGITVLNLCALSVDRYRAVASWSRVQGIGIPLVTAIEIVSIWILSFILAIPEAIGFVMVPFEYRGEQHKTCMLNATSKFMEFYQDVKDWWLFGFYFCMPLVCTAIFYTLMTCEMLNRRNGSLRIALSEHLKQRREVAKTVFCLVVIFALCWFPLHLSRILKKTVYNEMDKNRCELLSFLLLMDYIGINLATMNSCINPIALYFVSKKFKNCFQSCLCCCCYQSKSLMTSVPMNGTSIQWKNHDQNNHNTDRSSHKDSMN

[4] = biological target: T4, C-X-C chemokine receptor type 1 (Homo sapiens, UniProt P25024); also: in other assays of this panel Not Active means under 50% inhibition at 10 µM
T4 sequence (P25024 whole entry): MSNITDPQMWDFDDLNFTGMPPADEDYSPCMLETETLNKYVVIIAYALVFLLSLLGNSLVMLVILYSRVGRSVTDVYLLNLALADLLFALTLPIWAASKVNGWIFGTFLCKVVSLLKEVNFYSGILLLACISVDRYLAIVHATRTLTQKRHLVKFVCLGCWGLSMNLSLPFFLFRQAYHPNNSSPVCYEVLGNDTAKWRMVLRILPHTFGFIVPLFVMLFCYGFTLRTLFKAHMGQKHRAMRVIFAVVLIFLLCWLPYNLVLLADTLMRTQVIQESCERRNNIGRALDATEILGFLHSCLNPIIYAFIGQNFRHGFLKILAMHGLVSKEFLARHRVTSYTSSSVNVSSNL

Adenosine receptor A1 = biological target: T5, Adenosine receptor A1 (Homo sapiens, UniProt P30542); type: cell membranes, CHO, Membrane; conditions: cho
T5 sequence (P30542 whole entry): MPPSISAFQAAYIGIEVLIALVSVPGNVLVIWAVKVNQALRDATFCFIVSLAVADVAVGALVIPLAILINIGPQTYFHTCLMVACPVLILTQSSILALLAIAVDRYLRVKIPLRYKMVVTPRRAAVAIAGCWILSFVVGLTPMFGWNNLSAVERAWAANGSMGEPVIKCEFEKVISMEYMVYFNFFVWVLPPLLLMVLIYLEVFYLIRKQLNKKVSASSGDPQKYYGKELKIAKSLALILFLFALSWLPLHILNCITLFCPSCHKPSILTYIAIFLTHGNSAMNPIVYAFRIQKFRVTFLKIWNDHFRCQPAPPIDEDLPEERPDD

Chain of Beta-3 adrenergic receptor (P13945 whole entry): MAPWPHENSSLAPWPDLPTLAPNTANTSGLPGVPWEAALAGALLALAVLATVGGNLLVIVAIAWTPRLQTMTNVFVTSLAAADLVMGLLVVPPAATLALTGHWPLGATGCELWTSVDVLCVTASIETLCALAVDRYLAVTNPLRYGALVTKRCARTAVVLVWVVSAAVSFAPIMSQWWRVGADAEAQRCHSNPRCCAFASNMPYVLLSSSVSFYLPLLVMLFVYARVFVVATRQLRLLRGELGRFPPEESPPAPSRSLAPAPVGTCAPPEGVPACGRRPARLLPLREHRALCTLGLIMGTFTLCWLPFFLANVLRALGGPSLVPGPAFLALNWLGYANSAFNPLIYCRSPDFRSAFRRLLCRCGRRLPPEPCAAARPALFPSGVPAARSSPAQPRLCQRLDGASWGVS

Compound	IC50 (Adenosine receptor A3)	IC50 [1]	IC50 ([2]; hek293)	IC50 [3]	Ki [3]	IC50 (Endothelin-1 receptor)	IC50 [4]	IC50 (Adenosine receptor A1)	pIC50 ([2]; read-out: IC50)	pKi ([2]; read-out: Ki)	pIC50 ([3]; read-out: IC50)	pKi ([3]; read-out: Ki)	Ki (Adenosine receptor A3)	Ki [1]	Ki ([2]; hek293)	Ki (Endothelin-1 receptor)	Ki [4]	Ki (Adenosine receptor A1)
CC(c1cc2ccccc2s1)N(O)C(N)=O (stereo not drawn) [ZILEUTON]	Not Active	Not Active	Not Active	Not Active	Not Active	Not Active	Not Active	Not Active	–	–	–	–	–	–	–	–	–	–
O=C1Nc2ccc(Cl)cc2C(c2ccccc2Cl)=NC1O (stereo not drawn) [LORAZEPAM]	Not Active	Not Active	Not Active	Not Active	Not Active	Not Active	Not Active	Not Active	–	–	–	–	–	–	–	–	–	–
CCN(CC)CCOc1ccc(/C(=C(/Cl)c2ccccc2)c2ccccc2)cc1 [ENCLOMIPHENE]	–	Not Active	–	–	–	Not Active	Not Active	Not Active	5.25	5.37	–	–	–	–	–	–	–	–
CC(C)Cc1ccc([C@@H](C)C(=O)O)cc1 [(R)-IBUPROPHEN]	Not Active	Not Active	Not Active	Not Active	Not Active	Not Active	Not Active	Not Active	–	–	–	–	–	–	–	–	–	–
O=C(Nc1ccc(Br)cc1)c1cc(Br)cc(Br)c1O [TRIBROMSALAN]	Not Active	Not Active	Not Active	Not Active	Not Active	Not Active	Not Active	Not Active	–	–	–	–	–	–	–	–	–	–
CN(C/C=C/C#CC(C)(C)C)Cc1cccc2ccccc12 [TERBINAFINE]	Not Active	Not Active	Not Active	Not Active	Not Active	Not Active	Not Active	Not Active	–	–	–	–	–	–	–	–	–	–
Cn1c(=O)c2nc[nH]c2n(C)c1=O.O [THEOPHYLLINE]	Not Active	Not Active	Not Active	Not Active	Not Active	Not Active	Not Active	–	–	–	–	–	–	–	–	–	–	–
CC(C)NCC(O)c1ccc(NS(C)(=O)=O)cc1 (stereo not drawn) [SOTALOL]	Not Active	Not Active	Not Active	Not Active	Not Active	Not Active	Not Active	Not Active	–	–	–	–	–	–	–	–	–	–
CO[C@@H]1[C@@H](OC)[C@H](C)[C@@](O)(CC(=O)O)O[C@H]1[C@H](C)[C@H]1O[C@@]2(CC[C@@](C)([C@H]3CC[C@@](C)([C@@H]4O[C@@H]([C@H]5O[C@](C)(O)[C@H](C)C[C@@H]5C)C[C@@H]4O[C@@H]4C[C@H](OC)[C@@H](OC)[C@H](C)O4)O3)O2)C[C@H](O)[C@H]1C [MADURAMICIN ACID]	Not Active	Not Active	Not Active	–	–	Not Active	Not Active	Not Active	–	–	6.22	6.39	–	–	–	–	–	–
SODIUM ORTHOVANAD	Not Active	Not Active	Not Active	Not Active	Not Active	Not Active	Not Active	Not Active	–	–	–	–	Not Active	Not Active	Not Active	Not Active	Not Active	Not Active

From ChEMBL document CHEMBL1909046, “DrugMatrix in vitro pharmacology data”
